From patent US9474749B2 (priority 2004, dated 2016)

Experiments:
[1] = test system: pedal ganglia; experiment: NO release from excised pedal ganglia (NO-selective microprobe); format: cell-based, Mytilus edulis
Description: For the nitric oxide assay, ten pedal ganglia (per determination) dissected from M. edulis were bathed in 1 mL sterile phosphate buffered saline (PBS). […] For the opiate receptor antagonist experiments, ganglia were pretreated with naloxone for 10 minutes prior to reticuline addition. NO release was monitored with an NO-selective microprobe manufactured by World Precision Instruments (Sarasota, Fla.). The sensor was positioned approximately 100 μm above the respective tissue surface. […] The NO detection system was calibrated daily. The probe was allowed to equilibrate for 10 minutes in the incubation medium free of tissue before being transferred to vials containing the ganglia for another 5 minutes. Manipulation and handling of the ganglia was only performed with glass instruments. Data was acquired using the Apollo-4000 free radical analyzer (World Precision Instruments, Sarasota, Fla.). The experimental values were then transferred to Sigma-Plot and -Stat (Jandel, Calif.) for graphic representation and evaluation.

[2] = target: mu3 opiate receptor (Mytilus edulis, UniProt A0A8S3SM58); experiment: Displacement of 3H-dihydromorphine, pedal ganglia membrane suspension; format: binding
Description: An additional 100 excised pedal ganglia and the human monocytes were separately washed and homogenized in 50 volumes of 0.32 M sucrose, pH 7.4, at 4° C. using a Brinkmann polytron (30 seconds, setting no. 5). The crude homogenate was centrifuged at 900×g for 10 minutes at 4° C., and the supernatant was reserved on ice. The whitish crude pellet was resuspended by homogenization (15 seconds, setting no. 5) in 30 volumes of 0.32 M sucrose/Tris-HCl buffer, pH 7.4, and centrifuged at 900×g for 10 minutes. The extraction procedure was repeated one more time, and the combined supernatants were centrifuged at 900×g for 10 minutes. The resulting supernatants (S1′) were used immediately. […] The P2 pellet was then re-suspended with a Dounce hand-held homogenizer (10 strokes) in 100 volumes of buffer. Binding analysis was then performed on the cell membrane suspensions.
Aliquots of membrane suspension (0.2 mL, 0.12 mg of membrane protein) were incubated in triplicate at 22° C. for 40 minutes with the appropriate radiolabeled ligand in the presence of dextrorphan (10 mM) or levorphanol (10 mM) in 10 mM Tris-HCl buffer, pH 7.4, containing 0.1% BSA and 150 mM KCl. […] The filters were rapidly washed with 2.5 mL aliquots of the incubation buffer (4° C.), containing 2% polyethylene glycol 6000 (Baker). […] Protein concentration was determined in membrane suspensions (prepared in the absence of BSA).

[3] = target: T1, mu3 opiate receptor (Homo sapiens, UniProt P35372); experiment: biochemical; format: binding; details: read-out: Monocytes IC50, displacement of 3H-dihydromorphine; mean +/− S.E.M., three experiments
T1 construct: An additional 100 excised pedal ganglia and the human monocytes were separately washed and homogenized; host or cells: human monocytes
Description: For the nitric oxide assay, ten pedal ganglia (per determination) dissected from M. edulis were bathed in 1 mL sterile phosphate buffered saline (PBS). […] NO release was monitored with an NO-selective microprobe manufactured by World Precision Instruments (Sarasota, Fla.). The sensor was positioned approximately 100 μm above the respective tissue surface. […] The NO detection system was calibrated daily. The probe was allowed to equilibrate for 10 minutes in the incubation medium free of tissue before being transferred to vials containing the ganglia for another 5 minutes. Manipulation and handling of the ganglia was only performed with glass instruments. Data was acquired using the Apollo-4000 free radical analyzer (World Precision Instruments, Sarasota, Fla.). The experimental values were then transferred to Sigma-Plot and -Stat (Jandel, Calif.) for graphic representation and evaluation.
An additional 100 excised pedal ganglia and the human monocytes were separately washed and homogenized in 50 volumes of 0.32 M sucrose, pH 7.4, at 4° C. using a Brinkmann polytron (30 seconds, setting no. 5). The crude homogenate was centrifuged at 900×g for 10 minutes at 4° C., and the supernatant was reserved on ice. The whitish crude pellet was resuspended by homogenization (15 seconds, setting no. 5) in 30 volumes of 0.32 M sucrose/Tris-HCl buffer, pH 7.4, and centrifuged at 900×g for 10 minutes. The extraction procedure was repeated one more time, and the combined supernatants were centrifuged at 900×g for 10 minutes. The resulting supernatants (S1′) were used immediately. […] The P2 pellet was then re-suspended with a Dounce hand-held homogenizer (10 strokes) in 100 volumes of buffer. […]
Aliquots of membrane suspension (0.2 mL, 0.12 mg of membrane protein) were incubated in triplicate at 22° C. for 40 minutes with the appropriate radiolabeled ligand in the presence of dextrorphan (10 mM) or levorphanol (10 mM) in 10 mM Tris-HCl buffer, pH 7.4, containing 0.1% BSA and 150 mM KCl. […] Protein concentration was determined in membrane suspensions (prepared in the absence of BSA).

[4] = test system: Mytilus edulis pedal ganglia; experiment: Endogenous morphine levels in excised pedal ganglia incubated in vitro (HPLC, RIA); format: cell-based
[5] = test system: NCI-H295R cells; experiment: Morphine production by NCI-H295R cells (RIA); format: cell-based, human; details: one half million cells, 100 ng of reticuline, 24 hours; control about 9.6±3.5
Excerpt: Human cells (NCI-H295R) were adapted from the NCI-H295 pluripotent adrenocortical carcinoma cell line (ATCC CRL-10296), which is from a carcinoma of the adrenal cortex. The original cells were adapted to a culture medium that decreased the population doubling time from 5 days to 2 days. While the original cells grew in suspension, the adapted cells were selected to grow in a monolayer. These cells retained the ability to produce adrenal androgens and were responsive to angiotensin II and potassium ions. To propagate these cells, the culture medium was a 1:1 mixture of Dulbecco's modified Eagle's medium and Ham's F12 medium containing 15 mM HEPES, 0.00625 mg/mL insulin, 0.00625 mg/mL transferrin, 6.25 ng/mL selenium, 1.25 mg/mL bovine serum albumin, and 0.00535 mg/mL linoleic acid, 97.5%; Nu-Serum I, 2.5%. See, e.g., Rainey et al., Mol. Cell. Endocrinol., 100:45-50 (1994); Gazdar et al., Cancer Res., 50:5488-5496 (1990); and Bird et al., Endocrinology, 133:1555-1561 (1993)).
The cells were subcultured in 6 well cell culture cluster (Corning Inc.) 24 hours before the experiment. The amount of cells was determined by Microscope (Nickon inc). Various amounts of reticuline were added to the cells, and the cells were cultured with an NAPCO incubator. The incubation was terminated after 24 hours by adding 10 NHCl.

[6] = test system: human white blood cells / PMNs; experiment: Morphine production by human WBC and PMNs (HPLC, RIA); format: cell-based
[7] = test system: Mytilus edulis pedal ganglia; experiment: Ganglionic morphine levels after injection into the foot of intact animals; details: one hour after injection into the foot
Description: For in vivo precursor injection experiments, the animal's foot was injected with either reticuline or L-DOPA (0.1 and 1 μg/injection, respectively). Chemicals were injected by BD 1 cc syringes with 26 G needles. Each needle was inserted into that base of the foot just above the pedal ganglia.
For in vivo treatments, the animal's foot (20 animals per treatment) was injected with tyrosine (10^−5 M), tyramine (10^−5 M), or saline. Other animals were exposed to the enzyme inhibitors AMPT or quinidine alone or immediately following the respective foot injection. […] All chemicals were purchased from Sigma (St. Louis, Mo.).

[8] = test system: SK-N-SH neuroblastoma cell line; format: cell-based, human
Description: Cell viability was determined via Trypan blue exclusion. An inverted light microscope (Nikon) with a phase-contrast filter was used to observe the cells. Pictures of the cells were taken via a digital camera (Optronix) attached to the microscope ocular. Images were uploaded onto ImagePro Plus Software (Applied Biosystems), where cell viability was calculated based on both the number of cells covering the field and the cells that present as dead from the stain. In addition, ImagePro Plus was used for determining cellular morphology. The area and perimeter were found and used in the formula (4π*Area)/(Perimeter)^2, resulting in a value between 0 (a straight line) and 1 (a perfect circle).

[9] = test system: NMDA NR1 Subunit; experiment: NMDA NR1 subunit mRNA expression (RT-PCR); format: cell-based, human
Description: (§1) Isolation of total RNA was performed via RNA MiniPrep Kit (QIAGEN). Concentration of RNA was determined via GeneQuant II Spectrophotometer (Pharmacia Biotech) by multiplying A260 value with dilution factor and nucleic acid constant (0.04). Agarose gel electrophoresis (1%) was used to check for RNA quality.
(§2) RT and PCR reactions were performed in GeneAmp PCR System 9700 (Applied Biosystems) using reverse transcriptase and Taq DNA Polymerase. Forward and reverse gene specific-primers for various subunits of the 20S proteasome and immunoproteasome were either obtained from the literature or designed through Primer Express Software 2.0 (Applied Biosystems) (Table 4). NMDA receptor subunit primers were also designed (Table 4). NMDA receptor expression was used as a marker of neurodegenerative disease.
(§3) All primers were optimized for annealing temperatures and cycles (Table 5). Gel electrophoresis (2% agarose, 0.01% ethidium bromide) was performed and analyzed using a UV transilluminator (UVP) and GelPro Analyzer Software (Applied Biosystems). Relative band intensity was normalized with β-Actin reference gene.

[10] = test system: NMDA NR2B Subunit; experiment: NMDA NR2B subunit mRNA expression (RT-PCR); format: cell-based, human
Description: as §1, §2, §3

[11] = test system: 20S Proteasome X (β5) Subunit; experiment: 20S proteasome X subunit protein (Western blot); format: cell-based, human; details: rotenone
Description: (§4) To determine protein concentrations, protein was harvested using the following buffer: 20 mM Hepes (Sigma), 100 mM NaCl (Fisher), 10 mM NaF (Sigma), 1% Triton X-100 (Sigma), 1 mM sodium orthovanadate (Sigma), 10 mM EDTA (Sigma), pH 7.4, 0.1% protease inhibitor cocktail (Sigma), and ddH2O. Homogenized samples were spun in an ultracentrifuge at 10,000G for 20 minutes at 4° C. Concentration was determined via the Bradford assay (Bio-Rad) using bovine serum albumin (BSA, Sigma) for standard curve. To eliminate any potential pipetting error, samples and standards were read in triplicate.
(§5) Western blotting was performed as follows. SDS-polyacrylamide gels (12% for separation and 5% for stacking) were made using the Mini Trans-Blot Cell (Bio-Rad). Based on the concentrations from the protein concentration determination assay, the proteins were mixed with 2× Protein Loading Buffer (0.2M DTT) for a final volume of 24 μL. Tris-Glycine Electrophoresis Buffer (1×) was used in SDS-PAGE, and proteins were separated at constant amperage (35 mA).
(§6) Subsequent protein transfer to a nitrocellulose membrane involved use of the Mini Trans-Blot Cell apparatus run at constant voltage (100V) for 40 minutes. […]
(§7) Substrate (Pierce) was administered as a means of stimulating chemiluminescence. Blots were developed and subsequently analyzed for relative band intensity using Gel-Pro software (Applied Biosystems).

[12] = test system: 26S proteasome; experiment: Chymotrypsin activity of the 26S proteasome (fluorometric); format: cell-based, human; details: rotenone 30 nM; morphine 5 μM; control 236±4.8
Description: (§8) Proteasome function assays were performed in an effort to examine the modulation in levels of protein degradation. Fluorometric assays were performed for both the chymotrypsin activity of the 26S proteasome as well as activity of the whole 20S proteasome using procedures adapted from Kotamraju et al. (Proc. Natl. Acad. Sci. USA, 100:10653-8 (2003)). Excitation at 365 nm and emission at 460 nM of the fluorogenic compound, […] (AMC), were measured using a Spectrofluoroscence Detector (McPherson).

[13] = test system: 20S proteasome; experiment: Activity of the whole 20S proteasome (fluorometric); format: cell-based, human; details: rotenone 30 nM; morphine 5 μM
Description: as §8

[14] = test system: SH-SY5Y cells; experiment: M6G-induced NO release from SH-SY5Y cells; format: cell-based, human; details: 1 hour pre-treatment, 1 μM M6G
Description: The production of NO in SH-SY5Y cells was detected using the Apollo 4000 Free Radical Analyzer (World Precision Instruments). SH-SY5Y cells were trypsinized and cultured in a 6-well plate for 48 hours. An L-shaped amperometric NO-specific probe was connected to the Apollo Analyzer and calibrated using a SNAP+CuCl2 solution, which releases calculable amounts of NO. […] At the end of the treatment time-point, the media was removed and replaced with PBS warmed in a 37° C. bath, which is non-reactive with the probe. The probe was inserted about 1.5 mm above the cells and allowed to equilibrate for 5 minutes. […] The probe was monitored in real-time for the production of NO “spikes.” NO data was recorded using Free Radical Analyzer (World Precision Instruments). Cells were then discarded.

[15] = test system: mu3 opiate receptor; details: 10^−6 M CTOP 10 minutes prior
Description: In addition, the cells were either incubated with or without 10^−6 M CTOP 10 minutes prior to adding M6G.

[16] = test system: human saphenous veins; experiment: NO release from human saphenous veins; details: 10^−6 M CTOP 10 minutes before morphine
[17] = test system: SK-N-SH neuroblastoma cell line; experiment: Cellular morphology (Form Factor) of neuroblastoma cells; format: cell-based, human; details: IFNγ treatment; control 0.54±0.02
[18] = test system: 20S Proteasome LMP7 Subunit (β5i); experiment: LMP7 immunoproteasome subunit mRNA expression (RT-PCR); format: cell-based, human; details: IFNγ 20 ng/mL, 24 hours; control 0.29±0.01
Description: as §1, §2, §3

[19] = test system: Immunoproteasome LMP7 (β5i) Subunit; experiment: LMP7 polypeptide expression (Western blot); format: cell-based, human; details: IFNγ
Description: as §4, §5, §6, §7

Chain of mu3 opiate receptor (Mytilus edulis, UniProt A0A8S3SM58) (A0A8S3SM58 1-388): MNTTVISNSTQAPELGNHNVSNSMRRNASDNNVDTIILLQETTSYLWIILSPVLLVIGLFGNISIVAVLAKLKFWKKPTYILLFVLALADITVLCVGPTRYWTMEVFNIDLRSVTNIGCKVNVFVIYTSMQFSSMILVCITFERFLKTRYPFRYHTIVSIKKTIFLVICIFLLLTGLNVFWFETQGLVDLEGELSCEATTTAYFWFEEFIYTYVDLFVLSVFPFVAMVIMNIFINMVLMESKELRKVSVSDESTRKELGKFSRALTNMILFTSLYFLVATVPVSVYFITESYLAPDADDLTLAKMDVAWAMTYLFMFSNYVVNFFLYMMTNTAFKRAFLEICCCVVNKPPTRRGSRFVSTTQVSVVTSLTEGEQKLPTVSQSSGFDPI
T1 sequence (P35372 1-314 isoform P35372-14): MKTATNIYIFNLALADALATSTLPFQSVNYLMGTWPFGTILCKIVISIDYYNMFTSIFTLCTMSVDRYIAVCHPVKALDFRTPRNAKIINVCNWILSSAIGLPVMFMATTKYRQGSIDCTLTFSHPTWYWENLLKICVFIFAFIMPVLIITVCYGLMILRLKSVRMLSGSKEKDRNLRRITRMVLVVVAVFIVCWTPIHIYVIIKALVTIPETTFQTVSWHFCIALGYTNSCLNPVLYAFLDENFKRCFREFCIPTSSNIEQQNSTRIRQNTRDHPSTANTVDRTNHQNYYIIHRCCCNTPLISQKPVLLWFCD

**Q.** Which “NO Peak Level” value ([1]; ligand 10^−7 M) does the source give for COc1ccc(C[C@H]2c3cc(O)c(OC)cc3CCN2C)cc1O [Reticuline, reticuline] here?
**A.** The value was 17.6 ± 3.8 nM.

**Q.** What about the “NO Peak Time” value ([1]; ligand 10^−7 M) of the same compound?
**A.** The value was 9.2 ± 1.5 min.

**Q.** What about the “delay before ganglionic NO release” value ([1]; reticuline 10^−7 M) of the same compound?
**A.** Its value is “three-minute delay”.

**Q.** And the “duration of ganglionic NO release” value ([1]; reticuline 10^−7 M, morphine 10^−6 M)?
**A.** Its value is 17 min.

**Q.** What about the “affinity for the mu3 opiate receptor” value [2] of the same compound?
**A.** The value was “does not exhibit an affinity”.

**Q.** What about the IC50 ([2]; read-out: Pedal Ganglia IC50, displacement of 3H-dihydromorphine, mean +/− S.E.M., three experiments) of the same compound?
**A.** Its IC50 is over 1 µM.

**Q.** And the IC50 [3]?
**A.** Its IC50 is over 1 µM.

**Q.** And the “endogenous morphine level in ganglia (HPLC)” value ([4]; 50 ng of reticuline, 1 hour, control 1.43±0.41)?
**A.** Its value is 6.7±0.7 ng/mg tissue wet weight.

**Q.** And the “morphine production in mantle tissues” value ([4]; 50 ng of reticuline, mantle tissues)?
**A.** Its value is “did not produce detectable morphine”.

**Q.** And the “morphine per mg ganglion” value ([4]; 100 ng of reticuline)?
**A.** Its value is “about 5.0±0.47 ng morphine per mg ganglion”.

**Q.** What about the “ganglionic morphine level (RIA)” value ([4]; 100 ng of reticuline, one hour, control 1.33±0.61) of the same compound?
**A.** The value was “about 14.53±4.6 ng/mg”.

**Q.** What about the “ganglionic morphine level (HPLC, FIG. 1 legend)” value ([4]; 0.5 μg of reticuline, 1 hour) of the same compound?
**A.** Its value is 5 ng/mg morphine tissue wet weight.

**Q.** What about the “ganglionic morphine levels after exposure” value ([4]; 10^−6 M (FIG. 20)) of the same compound?
**A.** Its value is “significantly enhanced morphine levels”.

**Q.** What about the “ganglionic morphine levels versus control” value ([4]; 50 and 100 ng, 60 minutes, in vitro) of the same compound?
**A.** The value was “significantly higher”.

**Q.** And the “morphine produced by cells” value [5]?
**A.** Its value is “about 28±5.4 ng”.

**Q.** And the “WBC morphine concentrations versus untreated cells” value ([6]; P<0.001)?
**A.** Its value is “significantly increased WBC morphine concentrations”.

**Q.** And the “Morphine levels in media after the cells were removed” value ([6]; PMNs 3×10^6 cells, THP 100 μg, reticuline 50 μg, L-DOPA 100 μg, L-tyrosine 100 μg)?
**A.** Its value is 2.112 ± 0.33.

**Q.** What about the “morphine concentrations in WBC” value ([6]; one-hour treatment, control 12.33±5.64) of the same compound?
**A.** Its value is 136.04±8.71 pg/million cells.

**Q.** What about the “pedal ganglionic morphine levels after injection” value [7] of the same compound?
**A.** Its value is “significantly increased pedal ganglionic morphine levels”.

**Q.** C=C(C)[C@H]1Cc2c(ccc3c2O[C@@H]2COc4cc(OC)c(OC)cc4[C@@H]2C3=O)O1 [Rotenone] was tested. Which “LD50, cellular death of neuroblastoma cells” value ([8]; human) did it give?
**A.** Its value is 30 nM.

**Q.** And the confluency ([8]; rotenone 30 nM, 48-hour incubation)?
**A.** Its confluency is “about 45%”.

**Q.** And the NR1 expression ([9]; rotenone 30 nM (LD50), control 1.57±0.072)?
**A.** The NR1 expression was 1.22±0.010 AU.

**Q.** And the NR1 expression ([9]; rotenone 40 nM)?
**A.** Its NR1 expression is 1.21±0.028 AU.

**Q.** What about the NR2B expression ([10]; rotenone 30 nM (LD50), control 0.98±0.02) of the same compound?
**A.** Its NR2B expression is 1.22±0.08 AU.

**Q.** And the NR2B expression ([10]; rotenone 40 nM)?
**A.** Its NR2B expression is 1.49±0.02 AU.

**Q.** What about the “X subunit protein band intensity” value [11] of the same compound?
**A.** The value was 182 AU.

**Q.** And the “activity of the chymotrypsin functional 26S active site” value [12]?
**A.** The value was 221 ± 4.8 pM.

**Q.** What about the “20S proteasome activity” value [13] of the same compound?
**A.** The value was “Significant increase in activity of the 20S proteasome”.

**Q.** How did the “M6G-induced NO release after Aβ1-42 pre-treatment” value [14] turn out when Aβ1-42: β-amyloid peptide (Aβ) 1-42 was run?
**A.** The value was “dose-dependent decrease in NO release”.

**Q.** What does the source list for CTOP?
**A.** effect of CTOP on M6G-induced mu3 expression [15]: blocked by CTOP pre-treatment; morphine-induced NO release after CTOP pre-treatment [16]: no NO release was detected

**Q.** How did the “Form Factor (FF)” value [17] turn out when “IFNγ: interferon used to simulate an immune response” was run?
**A.** The value was 0.76±0.02.

**Q.** And the “LMP7 mRNA expression” value [18]?
**A.** Its value is 0.93±0.06.

**Q.** And the “LMP7 polypeptide expression” value [19]?
**A.** Its value is “caused an increase in LMP7 polypeptide expression”.
